Key:
Format in all cases: cell-based, human
[1] = system: CCRF-CEM; assay: NCI drug screen, CCRF-CEM; conditions: CCRF-CEM (Leukemia); 1.00E−5 Molar
Procedure: (§1) In brief, cellular protein levels were determined after 48 hours of drug exposure by sulforhodamine B colorimetry. Through the use of a time 0 cell control, the cell growth can be determined for each cell line thus allowing calculations of the 50% growth inhibitory concentration (GI50), the total growth inhibition (TGI), and the 50% lethal concentration (LC50). Comparison to plates not exposed to drug permits determination of concentration and times of exposure conferring 50% net growth inhibition (GI50), TGI, and 50% cell kill (LC50).
(§2) The screening system in United State National Cancer Institute (NCI) is consisted of 60 kinds of different human cancer cells, which can be used to assay the growth-inhibiting ability or cell toxicity of a compound against various cancer and tumor at a certain concentration.

[2] = system: RPMI-8226; assay: NCI drug screen, RPMI-8226; conditions: RPMI-8226 (Leukemia); 1.00E−5 Molar
Procedure: as §1, §2

[3] = system: HOP-62; assay: NCI drug screen, HOP-62; conditions: HOP-62 (Non-Small Cell Lung Cancer); 1.00E−5 Molar
Procedure: as §1, §2

[4] = system: NCI-H23; assay: NCI drug screen, NCI-H23; conditions: NCI-H23 (Non-Small Cell Lung Cancer); 1.00E−5 Molar
Procedure: as §1, §2

[5] = system: NCI-H460; assay: NCI drug screen, NCI-H460; conditions: NCI-H460 (Non-Small Cell Lung Cancer); 1.00E−5 Molar
Procedure: as §1, §2

[6] = system: KM12; assay: NCI drug screen, KM12; conditions: KM12 (Colon Cancer); 1.00E−5 Molar
Procedure: as §1, §2

[7] = system: BT-549; assay: NCI drug screen, BT-549; conditions: BT-549 (Breast Cancer); 1.00E−5 Molar
Procedure: as §1, §2

[8] = system: H1299; assay: MTT assay, PhTERT-SEAP (H1299); conditions: H1299; SEAP and MTT analysis
Procedure, shortened: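 Cultured cells received MTT for 4 h at 37 °C, then lysis buffer overnight at 37 °C. Optical density was read at 550 nm.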

Cc1ccc(C(=O)Nc2ccc3c(c2NC(=O)c2ccc(C)cc2)C(=O)c2ccccc2C3=O)cc1 [CC-04, 1,2-bis-(4-methylbenzamido)-anthraquinone]
Growth Percent [1]: 79.02% | Growth Percent [2]: 101.77% | Growth Percent [3]: 105.23% | Growth Percent [4]: 90.57% | Growth Percent [5]: 88.62% | Growth Percent [6]: 94.21% | Growth Percent [7]: 95.39%

Cc1ccc(C(=O)Nc2c(NC(=O)CCl)ccc3c2C(=O)c2ccccc2C3=O)cc1 [CC-12, 1-(4-methylbenzamido)-2-(chloroacetamido)-anthraquinone]
Growth Percent [3]: −28.62% | Growth Percent [4]: −85.89% | Growth Percent [5]: 95.65% | Growth Percent [6]: −19.53% | Growth Percent [7]: 28.19%

O=C(CCl)Nc1ccc2c(c1NC(=O)Cc1ccccc1)C(=O)c1ccccc1C2=O [CC-23, 1-[2-(phenyl)acetylamino]-2-(chloroacetamido)-anthraquinone]
Growth Percent [1]: 33.97% | Growth Percent [3]: 115.67% | Growth Percent [4]: 64.75% | Growth Percent [5]: 104.50% | Growth Percent [6]: 80.59% | Growth Percent [7]: 79.78%

Cc1ccc(C(=O)Nc2c(NC(=O)CN3CCCC3)ccc3c2C(=O)c2ccccc2C3=O)cc1 [CC-38, 1-(4-methylbenzamido)-2-[2-(tetrahydro-1H-1-pyrrolyl)acetylamino]-anthra quinone]
Growth Percent [1]: 39.61% | Growth Percent [3]: 113.43% | Growth Percent [4]: 73.29% | Growth Percent [5]: 61.05% | Growth Percent [6]: 51.05% | Growth Percent [7]: 81.58%

Cc1ccc(C(=O)Nc2c(NC(=O)CN3CCN(C)CC3)ccc3c2C(=O)c2ccccc2C3=O)cc1 [CC-43, 1-(4-methylbenzamido)-2-[2-(4-methylpiperazino)acetylamino]-anthraquinone]
inhibitory activity among compounds CC-35 to CC-50 [8]: higher inhibitory activity | Growth Percent [1]: 61.06% | Growth Percent [3]: 75.21% | Growth Percent [4]: 89.52% | Growth Percent [5]: 37.47% | Growth Percent [6]: 44.05% | Growth Percent [7]: 91.88%

From US8530465B2, “1, 2-disubstituted amido-anthraquinone derivatives, preparation method and application thereof” (National Defense Medical Center, priority 2010, dated 2013)
